Test [1] addresses T1, human GLP-1 receptor (hGLP-1R) (Homo sapiens, UniProt P43220).
T1 construct: expressed in transfected cells; crude membranes
The test is described as follows: [125I]-GLP-1 binding, SPA with membranes of HEK293 cells expressing hGLP-1R.

The target in test [2] is T2, hGIPR (Homo sapiens, UniProt P48546).
T2 construct: expressed in transfected cells
T2 sequence (P48546 22-466): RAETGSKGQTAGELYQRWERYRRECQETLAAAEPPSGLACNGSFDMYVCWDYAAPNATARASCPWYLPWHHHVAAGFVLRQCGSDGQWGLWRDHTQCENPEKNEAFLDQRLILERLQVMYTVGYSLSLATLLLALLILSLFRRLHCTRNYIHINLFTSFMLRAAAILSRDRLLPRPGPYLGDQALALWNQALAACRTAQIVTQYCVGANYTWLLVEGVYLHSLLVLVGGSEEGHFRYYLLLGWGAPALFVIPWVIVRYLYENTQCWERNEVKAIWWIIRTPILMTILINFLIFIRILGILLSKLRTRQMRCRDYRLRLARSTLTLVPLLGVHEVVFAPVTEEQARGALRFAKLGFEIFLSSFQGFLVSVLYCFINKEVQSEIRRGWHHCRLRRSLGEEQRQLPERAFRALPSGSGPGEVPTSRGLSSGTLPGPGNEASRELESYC
The test is described as follows: Functional cAMP formation (HTRF) in HEK-293 clonal cells expressing hGIPR, 0.1% bovine casein, without or with 1.0% human serum albumin. It is filed as cell-based. A digest of the protocol:
(§1)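 Cells were stimulated with peptide for 30 min at 37° C, then intracellular cAMP was measured by competitive HTRF (665/620 nm ratio) and converted to nM using a cAMP standard curve. Relative EC50 and Emax came from four-parameter logistic fits of percent maximal response against peptide concentration.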
(Cyclic AMP is a second messenger, typically raised through Gs and lowered through Gi signalling.)

Test [3] addresses T3, hGCGR (Homo sapiens, UniProt P47871).
T3 construct: expressed in transfected cells
The test is described as follows: Functional cAMP formation (HTRF) in HEK-293 clonal cells expressing hGCGR, 0.1% bovine casein, without or with 1.0% human serum albumin. It counts as cell-based. A digest of the protocol: as §1

In test [4] the target is hGLP-1R (Homo sapiens, UniProt P43220). The experiment in a line: Functional cAMP formation (HTRF) in HEK-293 clonal cells expressing hGLP-1R, 0.1% bovine casein, without or with 1.0% human serum albumin. It counts as cell-based. Details: expressed in transfected cells. The settings on record: for Emax: percent of maximal response to GLP-1(7-36)NH2; for EC50: geometric mean. In a few lines:
as §1

Where [5] appears, read: human GLP-1R, geometric mean (SEM, n), read-out: Binding Affinity Ki, nM (SEM, n) hGLP-1R.

Read-outs that look alike come from different tables or passages of the source. *1 amine or outer side, *2 acyl side, *3 side chain or, on linkers, in order; H or OH if unused. Where a SMILES comes first, the peptide text is derived from it. Side-chain parts run from the residue outwards. [ ]: non-standard residue; d: D form. The star is where a group is joined. αMePhe(2-F) = C[C@](N)(Cc1ccccc1F)C(=O)O; γGlu = O=C(O)[C@H](CCC(=O)[*:2])N[*:1]; C14 diacid = O=C(O)CCCCCCCCCCCCC(=O)*; αMeY = C[C@](N)(Cc1ccc(O)cc1)C(=O)O; 4Pal = N[C@@H](Cc1ccncc1)C(=O)O; αMeL = CC(C)C[C@](C)(N)C(=O)O; Orn = NCCC[C@H](N)C(=O)O; AEEA = NCCOCCOCC(=O)O; Aib = CC(C)(N)C(=O)O Some results are limits rather than exact numbers.

From patent publication US20230265151A1, “GIP/GLP1 CO-AGONIST COMPOUNDS” (priority 2020, published 2023) come the findings set out here.

T3 sequence (P47871 26-477): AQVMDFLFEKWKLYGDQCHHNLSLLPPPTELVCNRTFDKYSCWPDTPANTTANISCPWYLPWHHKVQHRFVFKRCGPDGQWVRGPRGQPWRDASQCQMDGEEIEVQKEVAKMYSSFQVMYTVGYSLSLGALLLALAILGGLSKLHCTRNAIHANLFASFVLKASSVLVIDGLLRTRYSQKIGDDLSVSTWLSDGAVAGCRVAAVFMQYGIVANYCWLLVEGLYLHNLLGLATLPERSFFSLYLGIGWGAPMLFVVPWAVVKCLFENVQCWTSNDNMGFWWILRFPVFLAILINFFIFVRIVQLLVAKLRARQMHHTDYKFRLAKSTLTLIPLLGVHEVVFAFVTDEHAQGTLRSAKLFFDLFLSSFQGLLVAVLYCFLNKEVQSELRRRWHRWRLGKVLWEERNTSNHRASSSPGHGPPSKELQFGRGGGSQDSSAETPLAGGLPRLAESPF
T1 sequence (P43220 24-463): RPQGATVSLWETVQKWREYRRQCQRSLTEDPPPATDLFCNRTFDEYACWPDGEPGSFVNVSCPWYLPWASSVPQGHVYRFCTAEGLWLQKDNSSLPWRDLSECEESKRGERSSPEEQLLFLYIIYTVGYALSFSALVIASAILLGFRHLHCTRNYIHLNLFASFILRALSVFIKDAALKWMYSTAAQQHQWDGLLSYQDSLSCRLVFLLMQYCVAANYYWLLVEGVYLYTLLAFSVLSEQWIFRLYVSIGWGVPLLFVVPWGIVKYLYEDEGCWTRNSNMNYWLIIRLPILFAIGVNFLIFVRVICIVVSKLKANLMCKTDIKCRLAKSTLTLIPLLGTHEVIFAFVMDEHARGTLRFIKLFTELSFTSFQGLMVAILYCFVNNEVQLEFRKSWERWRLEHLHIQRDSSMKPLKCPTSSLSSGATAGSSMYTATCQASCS
Chain of hGLP-1R (P43220 24-463): as above

For `CC[C@H](C)[C@H](NC(=O)[C@H](CC(C)C)NC(=O)[C@](C)(Cc1ccc(O)cc1)NC(=O)[C@H](CCCCNC(=O)COCCOCCNC(=O)COCCOCCNC(=O)CC[C@H](NC(=O)CCCCCCCCCCCCC(=O)O)C(=O)O)NC(=O)[C@@H](NC(=O)[C@H](Cc1ccccc1)NC(=O)[C@H](CCCN)NC(=O)C(C)(C)NC(=O)[C@H](CCC(N)=O)NC(=O)[C@H](C)NC(=O)[C@H](CCC(N)=O)NC(=O)[C@H](CCCN)NC(=O)[C@H](CC(=O)O)NC(=O)[C@H](CC(C)C)NC(=O)[C@](C)(CC(C)C)NC(=O)CNC(=O)C(C)(C)NC(=O)[C@H](Cc1ccncc1)NC(=O)[C@H](CC(=O)O)NC(=O)[C@H](CO)NC(=O)[C@@H](NC(=O)[C@](C)(Cc1ccccc1F)NC(=O)[C@@H](NC(=O)CNC(=O)[C@H](CCC(=O)O)NC(=O)C(C)(C)NC(=O)[C@@H](N)Cc1ccc(O)cc1)[C@@H](C)O)[C@@H](C)O)[C@@H](C)CC)C(=O)N[C@@H](CCCCNC(=O)COCCOCCNC(=O)COCCOCCNC(=O)CC[C@H](NC(=O)CCCCCCCCCCCCC(=O)O)C(=O)O)C(=O)NCC(=O)NCC(=O)N1CCC[C@H]1C(=O)N[C@@H](CO)C(=O)N[C@@H](CO)C(=O)NCC(=O)N[C@@H](C)C(=O)N1CCC[C@H]1C(=O)N1CCC[C@H]1C(=O)N1CCC[C@H]1C(=O)N[C@@H](CO)C(N)=O` [Example 441] (H-Y[Aib]EGT[αMePhe(2-F)]TSD[4Pal][Aib]G[αMeL]LD[Orn]QAQ[Aib][Orn]FIK([AEEA-AEEA-γGlu-C14 diacid])[αMeY]LIK([AEEA-AEEA-γGlu-C14 diacid])GGPSSGAPPPS-NH2), the Ki (usually the equilibrium dissociation constant of an inhibitor or competing ligand from its target) in test [1] (setting [5]) amounted to 0.386 nM. The maximal effect (Emax) (in general, the maximal effect, on the per cent scale that the assay sets) came out at 83.8% in test [2] (HEK293, cAMP, 37° C., 0.1% bovine casein and 1.0% human serum albumin, percent of maximal response to GIP(1-42)NH2, read-out: hGIPR Emax, % ± SEM); 97.2% in test [2] (HEK293, cAMP, 37° C., 0.1% bovine casein, percent of maximal response to GIP(1-42)NH2, arithmetic mean, read-out: hGIPR Emax, % ± SEM); 111% in test [4] (HEK293, cAMP, 37° C., 0.1% bovine casein and 1.0% human serum albumin, read-out: hGLP-1R Emax, % ± SEM); 110% in test [4] (HEK293, cAMP, 37° C., 0.1% bovine casein, arithmetic mean, read-out: hGLP-1R Emax, % ± SEM). Further, the EC50 (in general, the concentration giving half of the maximal effect) was 0.0174 nM in test [2] (cAMP, 37° C., 0.1% bovine casein (no human serum albumin), geometric mean, read-out: hGIPR EC50, nM (SEM, n)); 1.38 nM in test [2] (cAMP, 37° C., 0.1% bovine casein and 1.0% human serum albumin, geometric mean (SEM, n), read-out: hGIPR EC50, nM (SEM, n)); more than 9950 nM in test [3] (cAMP, 37° C., 0.1% bovine casein (no human serum albumin), geometric mean, read-out: hGCGR EC50, nM (SEM, n)); more than 9950 nM in test [3] (cAMP, 37° C., 0.1% bovine casein and 1.0% human serum albumin, geometric mean (SEM, n), read-out: hGCGR EC50, nM (SEM, n)); 0.134 nM in test [4] (cAMP, 37° C., 0.1% bovine casein (no human serum albumin), read-out: hGLP-1R EC50, nM (SEM, n)).

Turning to `CC[C@H](C)[C@H](NC(=O)[C@H](CC(C)C)NC(=O)[C@](C)(Cc1ccc(O)cc1)NC(=O)[C@H](CCCCNC(=O)COCCOCCNC(=O)CC[C@H](NC(=O)COCCOCCNC(=O)CC[C@H](NC(=O)CCCCCCCCCOc1ccc(C(=O)O)cc1)C(=O)O)C(=O)O)NC(=O)[C@@H](NC(=O)[C@H](Cc1ccccc1)NC(=O)[C@H](CCCN)NC(=O)C(C)(C)NC(=O)[C@H](CCC(N)=O)NC(=O)[C@H](C)NC(=O)[C@H](CCC(N)=O)NC(=O)[C@H](CCCN)NC(=O)[C@H](CC(=O)O)NC(=O)[C@H](CC(C)C)NC(=O)[C@](C)(CC(C)C)NC(=O)[C@@H](NC(=O)C(C)(C)NC(=O)[C@H](Cc1ccncc1)NC(=O)[C@H](CC(=O)O)NC(=O)[C@H](CO)NC(=O)[C@@H](NC(=O)[C@](C)(Cc1ccccc1F)NC(=O)[C@@H](NC(=O)CNC(=O)[C@H](CCC(=O)O)NC(=O)C(C)(C)NC(=O)[C@@H](N)Cc1ccc(O)cc1)[C@@H](C)O)[C@@H](C)O)[C@@H](C)CC)[C@@H](C)CC)C(=O)N[C@@H](CCCCNC(=O)COCCOCCNC(=O)CC[C@H](NC(=O)COCCOCCNC(=O)CC[C@H](NC(=O)CCCCCCCCCOc1ccc(C(=O)O)cc1)C(=O)O)C(=O)O)C(=O)NCC(=O)NCC(=O)N1CCC[C@H]1C(=O)N[C@@H](CO)C(=O)N[C@@H](CO)C(=O)NCC(=O)N[C@@H](C)C(=O)N1CCC[C@H]1C(=O)N1CCC[C@H]1C(=O)N1CCC[C@H]1C(=O)N[C@@H](CO)C(N)=O` [Example 485], the Ki in test [1] was found to be 0.3 nM. In addition, the maximal effect (Emax) in test [2] (HEK293, read-out: hGIPR Emax, % ± SEM, cAMP, 37° C., 0.1% bovine casein and 1.0% human serum albumin, percent of maximal response to GIP(1-42)NH2) was 93.8%; in test [4] (HEK293, read-out: hGLP-1R Emax, % ± SEM, cAMP, 37° C., 0.1% bovine casein, arithmetic mean), 115%. Further, the EC50 is 0.0113 nM in test [2] (hGIPR EC50, nM (SEM, n), cAMP, 37° C., 0.1% bovine casein (no human serum albumin), geometric mean); more than 10100 nM in test [3] (hGCGR EC50, nM (SEM, n), cAMP, 37° C., 0.1% bovine casein (no human serum albumin), geometric mean); more than 9950 nM in test [3] (hGCGR EC50, nM (SEM, n), cAMP, 37° C., 0.1% bovine casein and 1.0% human serum albumin, geometric mean (SEM, n)); 0.153 nM in test [4] (hGLP-1R EC50, nM (SEM, n), cAMP, 37° C., 0.1% bovine casein (no human serum albumin)).

In the case of `CC[C@H](C)[C@H](NC(=O)[C@H](CCCN)NC(=O)[C@H](CC(=O)O)NC(=O)[C@H](CC(C)C)NC(=O)[C@](C)(CC(C)C)NC(=O)[C@@H](NC(=O)[C@H](CO)NC(=O)[C@H](Cc1ccncc1)NC(=O)[C@H](CC(=O)O)NC(=O)[C@H](CO)NC(=O)[C@@H](NC(=O)[C@](C)(Cc1ccccc1F)NC(=O)[C@@H](NC(=O)CNC(=O)[C@H](CCC(=O)O)NC(=O)C(C)(C)NC(=O)[C@@H](N)Cc1ccc(O)cc1)[C@@H](C)O)[C@@H](C)O)[C@@H](C)CC)C(=O)N[C@@H](C)C(=O)N[C@@H](CCC(N)=O)C(=O)NC(C)(C)C(=O)N[C@@H](CCCCNC(=O)COCCOCCNC(=O)COCCOCCNC(=O)CC[C@H](NC(=O)CCCCCCCCCCCCC(=O)O)C(=O)O)C(=O)N[C@@H](Cc1ccccc1)C(=O)N[C@H](C(=O)N[C@H](CCC(=O)O)C(=O)N[C@@](C)(Cc1ccc(O)cc1)C(=O)N[C@@H](CC(C)C)C(=O)N[C@H](C(=O)N[C@@H](CCCCNC(=O)COCCOCCNC(=O)COCCOCCNC(=O)CC[C@H](NC(=O)CCCCCCCCCCCCC(=O)O)C(=O)O)C(=O)NCC(=O)NCC(=O)N1CCC[C@H]1C(=O)N[C@@H](CO)C(=O)N[C@@H](CO)C(=O)NCC(=O)N[C@@H](C)C(=O)N1CCC[C@H]1C(=O)N1CCC[C@H]1C(=O)N1CCC[C@H]1C(=O)N[C@@H](CO)C(N)=O)[C@@H](C)CC)[C@@H](C)CC` [Example 73], the inhibition constant (Ki) in test [1] (setting [5]) is 3.38 nM. Further, the 50% effective concentration (EC50) is 2.16 nM in test [2] (0.1% bovine casein and 1.0% human serum albumin, 37° C., geometric mean, read-out: hGIPR EC50, nM (SEM, n)); 0.0207 nM in test [2] (cAMP, incubated at 37° C., 0.1% bovine casein (no human serum albumin), geometric mean, read-out: hGIPR EC50, nM (SEM, n)); more than 9950 nM in test [3] (0.1% bovine casein and 1.0% human serum albumin, 37° C., geometric mean, read-out: hGCGR EC50, nM (SEM, n)); more than 9950 nM in test [3] (cAMP, incubated at 37° C., 0.1% bovine casein (no human serum albumin), geometric mean, read-out: hGCGR EC50, nM (SEM, n)); 56.2 nM in test [4] (0.1% bovine casein and 1.0% human serum albumin, 37° C., read-out: hGLP-1R EC50, nM (SEM, n)); 0.437 nM in test [4] (cAMP, incubated at 37° C., 0.1% bovine casein (no human serum albumin), read-out: hGLP-1R EC50, nM (SEM, n)). The Emax is 80.2% in test [2] (HEK293, 0.1% bovine casein and 1.0% human serum albumin, 37° C., percent of maximal response to GIP(1-42)NH2, read-out: hGIPR Emax, % ± SEM); 97.1 ± 2.7% in test [2] (HEK293, percent of maximal response to GIP(1-42)NH2, 37° C., 0.1% bovine casein, arithmetic mean, read-out: hGIPR Emax, % ± SEM); 109% in test [4] (HEK293, 0.1% bovine casein and 1.0% human serum albumin, 37° C., read-out: hGLP-1R Emax, % ± SEM).
